Activity calls are given as the source filed them.
Experiments:
[1] = molecular target: Cytochrome P450 2C9 (Homo sapiens, UniProt P11712); conditions: Potency
[2] = molecular target: T1, fMet-Leu-Phe receptor (Homo sapiens, UniProt P21462); test: FPR ligands, dose response (AID 519); assay type: functional
T1 sequence (P21462 whole entry): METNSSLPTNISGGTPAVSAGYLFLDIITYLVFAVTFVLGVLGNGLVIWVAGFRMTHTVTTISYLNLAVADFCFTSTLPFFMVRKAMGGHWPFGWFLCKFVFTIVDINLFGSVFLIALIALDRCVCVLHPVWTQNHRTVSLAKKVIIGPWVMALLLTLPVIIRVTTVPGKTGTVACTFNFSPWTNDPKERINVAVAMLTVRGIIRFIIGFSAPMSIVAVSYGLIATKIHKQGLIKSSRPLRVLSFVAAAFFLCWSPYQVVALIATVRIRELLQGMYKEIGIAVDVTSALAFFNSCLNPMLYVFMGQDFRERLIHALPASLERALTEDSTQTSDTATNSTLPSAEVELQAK

[3] = molecular target: T2, Neuropeptides B/W receptor type 1 (Homo sapiens, UniProt P48145); test: Fluorescence-based dose response cell-based high throughput screening assay to identify antagonists of the G-protein coupled receptor 7 (GPR7). [Related pubchem assays: 1952 (Screening assay (GPR7 antagonists).), 1880 (Summary AID.)]; assay type: functional
T2 sequence (P48145 whole entry): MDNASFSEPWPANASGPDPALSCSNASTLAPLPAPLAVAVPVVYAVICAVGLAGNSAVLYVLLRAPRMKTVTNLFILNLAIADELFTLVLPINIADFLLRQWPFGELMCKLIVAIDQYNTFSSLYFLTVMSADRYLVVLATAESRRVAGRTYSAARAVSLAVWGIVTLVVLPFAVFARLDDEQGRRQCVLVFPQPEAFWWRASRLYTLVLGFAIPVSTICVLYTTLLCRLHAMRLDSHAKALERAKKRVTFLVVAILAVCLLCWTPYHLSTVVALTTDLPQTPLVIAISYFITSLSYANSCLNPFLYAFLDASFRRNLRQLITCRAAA

[4] = molecular target: Melanin-concentrating hormone receptor 1 (Homo sapiens, UniProt Q99705); test: Fluorescence-based counterscreen for antagonists of the G-protein coupled receptor 7 (GPR7): cell-based high throughput dose response assay to identify antagonists of the melanin-concentrating hormone receptor 1 (MCHR1).; assay type: functional
Sequence of Melanin-concentrating hormone receptor 1 (Q99705 whole entry): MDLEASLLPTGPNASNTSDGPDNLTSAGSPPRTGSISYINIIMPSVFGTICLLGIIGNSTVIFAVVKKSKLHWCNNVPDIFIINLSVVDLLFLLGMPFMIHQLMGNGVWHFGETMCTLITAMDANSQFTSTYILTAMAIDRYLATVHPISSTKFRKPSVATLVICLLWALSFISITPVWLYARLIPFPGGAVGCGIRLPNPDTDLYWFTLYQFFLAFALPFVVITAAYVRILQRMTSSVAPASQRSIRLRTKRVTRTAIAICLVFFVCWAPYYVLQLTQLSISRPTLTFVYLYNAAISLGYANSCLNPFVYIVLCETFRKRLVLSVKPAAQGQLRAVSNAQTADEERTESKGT

[5] = cells
[6] = HEp-2 cell cytotoxicity, dose response, cytotoxicity control for RSV inhibitor project, HTS (AID 2410); assay type: functional; conditions: human respiratory syncytial virus
[7] = molecular target: T3, Rac GTPase-activating protein 1 (Homo sapiens, UniProt Q9H0H5); test: MgcRacGAP GTPase-activating activity inhibitors, confirmation, biochemical, ADP Hunter fluorescence, primary and confirmatory (AID 624330); assay type: functional
T3 sequence (Q9H0H5 whole entry): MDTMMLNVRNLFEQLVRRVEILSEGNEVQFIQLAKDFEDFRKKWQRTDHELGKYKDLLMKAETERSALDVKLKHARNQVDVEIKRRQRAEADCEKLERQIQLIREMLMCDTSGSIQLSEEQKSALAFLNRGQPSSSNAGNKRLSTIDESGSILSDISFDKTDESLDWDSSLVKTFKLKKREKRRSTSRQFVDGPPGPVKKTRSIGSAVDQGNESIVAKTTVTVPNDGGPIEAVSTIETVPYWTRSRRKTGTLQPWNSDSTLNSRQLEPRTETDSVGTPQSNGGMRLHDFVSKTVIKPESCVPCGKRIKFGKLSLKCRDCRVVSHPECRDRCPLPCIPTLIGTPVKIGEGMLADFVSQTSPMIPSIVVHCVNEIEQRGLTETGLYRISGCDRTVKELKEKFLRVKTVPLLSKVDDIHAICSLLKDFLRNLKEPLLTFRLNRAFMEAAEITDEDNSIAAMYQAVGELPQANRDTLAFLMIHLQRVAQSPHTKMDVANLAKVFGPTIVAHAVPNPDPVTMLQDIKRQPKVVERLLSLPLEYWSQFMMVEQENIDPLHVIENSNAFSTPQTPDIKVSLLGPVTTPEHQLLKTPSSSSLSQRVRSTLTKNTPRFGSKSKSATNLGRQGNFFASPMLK

[8] = molecular target: Nonstructural protein 1 (Influenza A virus, UniProt Q194T2); assay type: functional, Influenza A virus (A/California/07/2009(H1N1))
Sequence of Nonstructural protein 1 (Q194T2 whole entry): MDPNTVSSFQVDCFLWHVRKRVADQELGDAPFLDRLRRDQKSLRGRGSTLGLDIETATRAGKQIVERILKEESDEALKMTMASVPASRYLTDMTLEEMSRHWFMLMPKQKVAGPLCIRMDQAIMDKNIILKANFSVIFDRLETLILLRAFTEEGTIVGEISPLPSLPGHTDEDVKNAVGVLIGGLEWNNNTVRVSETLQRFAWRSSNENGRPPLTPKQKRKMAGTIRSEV

[9] = Luminescence Cell-Based Dose Confirmation HTS to Identify Inhibitors of Platelet Dense Granule Release. [Related pubchem assays: 1663 (Primary HTS), 1678 (Summary of Project)]; assay type: functional
[10] = molecular target: Luciferin 4-monooxygenase (Photinus pyralis, UniProt P08659); test: firefly luciferase enzyme inhibitors, dose response, biochemical, luminescence (AID 1891)
Sequence of Luciferin 4-monooxygenase (P08659 whole entry): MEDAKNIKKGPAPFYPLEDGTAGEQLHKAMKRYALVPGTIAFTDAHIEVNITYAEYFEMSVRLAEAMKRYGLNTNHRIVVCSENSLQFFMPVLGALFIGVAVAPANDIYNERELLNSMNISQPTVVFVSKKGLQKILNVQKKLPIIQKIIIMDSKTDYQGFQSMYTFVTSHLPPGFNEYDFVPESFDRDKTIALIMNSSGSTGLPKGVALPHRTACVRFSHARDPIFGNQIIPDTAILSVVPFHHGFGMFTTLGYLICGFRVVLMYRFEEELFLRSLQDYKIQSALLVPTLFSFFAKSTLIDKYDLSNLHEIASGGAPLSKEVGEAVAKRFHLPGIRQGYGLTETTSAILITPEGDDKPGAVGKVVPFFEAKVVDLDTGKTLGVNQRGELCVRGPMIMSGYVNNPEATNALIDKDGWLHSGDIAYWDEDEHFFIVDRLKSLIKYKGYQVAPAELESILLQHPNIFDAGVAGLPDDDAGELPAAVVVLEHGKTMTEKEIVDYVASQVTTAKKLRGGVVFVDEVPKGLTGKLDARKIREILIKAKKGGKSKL

[11] = molecular target: T4, Leucine aminopeptidase (Plasmodium falciparum 3D7, UniProt Q8IL11); test: P. falciparum M17LAP inhibitors, primary screen, biochemical, fluorogenic H-Leu-NHMec substrate, 1536-well (AID 1619); assay type: functional
T4 sequence (Q8IL11 whole entry): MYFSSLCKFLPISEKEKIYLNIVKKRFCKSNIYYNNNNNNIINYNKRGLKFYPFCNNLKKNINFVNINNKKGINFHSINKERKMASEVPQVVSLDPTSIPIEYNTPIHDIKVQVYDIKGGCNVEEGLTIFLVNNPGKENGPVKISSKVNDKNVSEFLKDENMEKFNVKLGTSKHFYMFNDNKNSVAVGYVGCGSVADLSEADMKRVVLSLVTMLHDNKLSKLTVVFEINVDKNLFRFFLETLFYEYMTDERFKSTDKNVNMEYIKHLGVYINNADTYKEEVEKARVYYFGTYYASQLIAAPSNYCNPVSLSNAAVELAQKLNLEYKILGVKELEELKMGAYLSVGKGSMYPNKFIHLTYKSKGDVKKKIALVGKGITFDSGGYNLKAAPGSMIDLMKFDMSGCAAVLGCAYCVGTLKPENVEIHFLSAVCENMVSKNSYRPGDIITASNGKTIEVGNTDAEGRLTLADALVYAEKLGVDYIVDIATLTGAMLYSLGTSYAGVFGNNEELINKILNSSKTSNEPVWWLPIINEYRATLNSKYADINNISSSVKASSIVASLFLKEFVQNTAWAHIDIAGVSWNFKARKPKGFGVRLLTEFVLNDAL

[12] = inhibitors of clade B AD8 Env fusion, dose response, cell-based, cherry-pick (AID 652062); assay type: functional;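 further: luciferase signal from cell-cell fusion driven by HIV-1 clade B AD8 Env; potency is for inhibitors of fusion seen as a drop in luminescence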
[13] = ZM109 Env clade C HIV-1 fusion inhibitors, dose response, HeLa effector, CEM target cells, luciferase, cherry-pick (AID 652058); assay type: functional, cell-based
[14] = off-target signal loss in HeLa-CEM21 co-culture – HeLa F-luc CTL cells, cherry-picked, counter-screen for HIV-1 Env fusion inhibitor project, dose response (AID 652040); assay type: functional, cell-based;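 further: potency for signal decrease marking cytotoxic or nonspecific inhibition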
[15] = inhibitors of HIV Env-driven cell fusion, dose response, cherry-pick (AID 652057); assay type: functional, cell-based
[16] = molecular target: T5, Protein Tat (Human immunodeficiency virus type 1 group M subtype B (isolate HXB2)(HIV-1), UniProt P04608); assay type: functional;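 further: tat binding to TAR RNA read out by fluorescence polarization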
T5 sequence (P04608 whole entry): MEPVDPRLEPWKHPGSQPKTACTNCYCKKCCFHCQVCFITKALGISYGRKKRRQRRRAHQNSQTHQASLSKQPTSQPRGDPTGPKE

[17] = THP-1 cell cytotoxicity, dose response, cytotoxicity control for Vif-APOBEC3G degradation inhibitor project, THP-1 cells (AID 1117359); assay type: functional; conditions: Human immunodeficiency virus 1, THP-1
[18] = A375 melanoma cell cytotoxicity, dose response, counter-screen for MITF inhibitor project, CellTiter-Glo luminescence, dry powder, set 2 (AID 624489); assay type: functional, cell-based; conditions: A-375;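 further: actives are compounds lowering A375 viability meaning general cytotoxicity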
[19] = A375 melanoma cell viability loss, dose response, counter-screen for MITF inhibitor project, CellTiter-Glo luminescence, dry powder, set 4 (AID 624364); assay type: functional, cell-based; conditions: A-375;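 further: A375 melanoma cells are MITF independent so this is a counter screen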
[20] = molecular target: T6, SUMO-activating enzyme (Homo sapiens, UniProt Q9UBT2); test: inhibitors of in vitro SUMOylation cascade, primary screen, biochemical, HTRF, uHTS (AID 2006); assay type: protein-complex assay
T6 sequence (Q9UBE0 whole entry): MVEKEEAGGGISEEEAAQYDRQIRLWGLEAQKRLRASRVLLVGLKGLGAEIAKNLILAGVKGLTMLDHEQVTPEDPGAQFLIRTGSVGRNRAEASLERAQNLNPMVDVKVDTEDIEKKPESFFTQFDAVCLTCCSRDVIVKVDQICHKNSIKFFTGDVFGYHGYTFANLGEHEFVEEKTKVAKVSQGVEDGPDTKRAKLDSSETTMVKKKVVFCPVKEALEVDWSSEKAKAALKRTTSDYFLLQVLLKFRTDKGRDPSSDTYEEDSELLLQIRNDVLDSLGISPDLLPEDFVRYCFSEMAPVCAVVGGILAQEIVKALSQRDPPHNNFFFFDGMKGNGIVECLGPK
T6 sequence (Q9UBT2 whole entry): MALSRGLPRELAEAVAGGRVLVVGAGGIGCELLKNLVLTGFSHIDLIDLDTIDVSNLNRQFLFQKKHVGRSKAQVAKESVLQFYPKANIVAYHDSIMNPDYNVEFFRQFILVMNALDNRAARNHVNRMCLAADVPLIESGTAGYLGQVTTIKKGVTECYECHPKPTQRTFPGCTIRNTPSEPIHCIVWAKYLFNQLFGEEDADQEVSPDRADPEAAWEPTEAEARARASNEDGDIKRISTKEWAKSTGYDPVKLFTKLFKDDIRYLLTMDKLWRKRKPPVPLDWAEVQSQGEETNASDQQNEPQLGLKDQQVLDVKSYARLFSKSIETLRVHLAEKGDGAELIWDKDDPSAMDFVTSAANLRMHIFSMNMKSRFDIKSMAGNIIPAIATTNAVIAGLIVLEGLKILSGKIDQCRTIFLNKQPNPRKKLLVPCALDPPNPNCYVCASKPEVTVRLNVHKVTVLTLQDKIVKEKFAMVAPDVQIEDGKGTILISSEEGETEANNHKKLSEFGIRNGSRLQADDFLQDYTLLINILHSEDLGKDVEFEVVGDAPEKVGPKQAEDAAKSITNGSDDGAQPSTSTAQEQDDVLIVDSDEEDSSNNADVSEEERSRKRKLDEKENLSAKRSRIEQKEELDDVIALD

[21] = tested on: Vero; test: cells; assay type: functional; conditions: Chlorocebus sabaeus
[22] = molecular target: T6, SUMO-activating enzyme; test: SUMOylation inhibitor hit validation, confirmation, SUMOylation inhibitor project, biochemical, AlphaScreen (AID 2018); assay type: functional
[23] = P. falciparum Dd2 growth inhibitors, dose response, SYBR Green, cherry-picked samples (AID 1159567); assay type: functional, cell-based
[24] = HepG2 cell cytotoxicity, dose response, cytotoxicity control, cherry-picked samples (AID 1159577); assay type: functional, cell-based
[25] = P. falciparum ATP4 D1247Y mutant growth inhibitors, dose response, NITD609-resistant line, SYBR Green, dry powder (AID 1159571); assay type: functional, cell-based;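 further: parasites synchronized at ring stage by sorbitol before testing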
[26] = P. falciparum Dd2 growth inhibitors, dose response, SYBR Green, dry powder samples (AID 1159566); assay type: functional, cell-based;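 further: potency for growth inhibition with lower SYBR green DNA signal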
[27] = P. falciparum 3D7-ScDHODH growth inhibitors, dose response, SYBR Green, dry powder samples (AID 1159570); assay type: functional, cell-based;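 further: parasite growth measured after 72 hours of compound exposure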
[28] = P. falciparum Dd2 growth inhibitors, dose response, SYBR Green, dry powder samples, set 9 (AID 1159568); assay type: functional, cell-based

Sequence of Cytochrome P450 2C9 (P11712 whole entry): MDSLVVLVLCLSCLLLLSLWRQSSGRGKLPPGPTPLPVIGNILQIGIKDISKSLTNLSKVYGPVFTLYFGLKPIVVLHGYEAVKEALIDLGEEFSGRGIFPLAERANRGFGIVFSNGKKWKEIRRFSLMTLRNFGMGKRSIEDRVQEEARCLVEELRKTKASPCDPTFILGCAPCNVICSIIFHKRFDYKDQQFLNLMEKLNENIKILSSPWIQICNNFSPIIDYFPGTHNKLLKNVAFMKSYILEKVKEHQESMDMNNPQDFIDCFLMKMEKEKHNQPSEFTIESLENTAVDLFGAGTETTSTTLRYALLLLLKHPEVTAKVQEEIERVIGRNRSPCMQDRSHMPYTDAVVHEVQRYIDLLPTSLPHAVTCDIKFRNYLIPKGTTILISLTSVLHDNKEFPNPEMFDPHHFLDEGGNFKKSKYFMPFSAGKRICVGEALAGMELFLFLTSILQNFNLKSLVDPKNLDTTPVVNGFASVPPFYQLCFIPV

In the case of CCCCC#CC1C=CC(Oc2cc(OC)c(OC)c(OC)c2)C(COC(=O)OCC)O1 (configuration not stated), the AC50 [1] is reported as 6.31 µM (inconclusive).
For Cc1ccc(C2C(C(=O)c3cnn(-c4ccccc4)c3C)=C(O)C(=O)N2CCN2CCOCC2)o1 (configuration not stated), the Ki [2] was 23.2 µM (inactive).
For CN(c1ccccc1)S(=O)(=O)c1ccc(C(=O)NCCc2ccccc2)cc1, the IC50 [3] was > 14.6 µM (not active) and the IC50 [4] was 16 µM (not active).
With COc1ccc(NS(=O)(=O)c2cccc(C(=O)NCC(c3ccc(F)cc3)N3CCOCC3)c2)cc1 (configuration not stated) the IC50 [3] was > 43.8 µM (not active) and the IC50 [4] was 23.6 µM (not active).
With c1ccc(CCn2c3ccccc3c3nnc(SCc4ccc5nonc5c4)nc32)cc1 the IC50 [5] was 28.3 µM (active) and the CC50 [6] was 22.3 µM (active).
With CC(=O)OCCNc1cc(N2CCN(C)CC2)c2noc3c2c1C(=O)c1ccccc1-3 the IC50 [7] was 117 µM (active), the Ki [2] was > 66.7 µM (inactive) and the IC50 [8] was 24.1 µM (active).
With O=S(=O)(Nc1cccc(-c2ccc(N3CCOCC3)nn2)c1)c1cc(Cl)ccc1Cl the IC50 [5] was 8.9 µM (active) and the CC50 [6] was 23.5 µM (active).
With O=C1CCCN1c1ccc(C(=O)N(Cc2nnc(-c3ccccc3Cl)o2)C2CC2)cc1 the IC50 [5] was 18.8 µM (active) and the CC50 [6] was 48.5 µM (active).
With CC(C)C[C@@H](CC(=O)N[C@@H](CCCN)CC(=O)N[C@@H]1CCCC[C@H]1C(=O)N[C@H](CC(=O)N[C@@H](CCC(=O)O)CC(=O)O)Cc1c[nH]c2ccccc12)NC(=O)[C@@H]1CCCC[C@H]1N the AC50 [1] was 39.8 µM (inconclusive).
In the case of CSc1ncnc2c1ncn2CC(=O)[C@H]1CC[C@H]2[C@H]3CCC4=CC(=O)CC[C@@]4(C)[C@@H]3CC[C@@]12C, the AC50 [1] is reported as 3.16 µM (inconclusive).
With O=C(Cn1cnc2c(cnn2-c2ccc(F)cc2)c1=O)OCc1ccccc1 the EC50 [9] was > 112 µM (not active), the Ki [2] was > 66.7 µM (inactive) and the EC50 [10] was > 112 µM (not active).
For COc1ccc(CNC(=O)Cc2c(C(=O)O)[nH]c3ccccc23)cc1, the IC50 [11] was 35.6 µM (active).
With COC(=O)CNC(c1ccccc1)c1cc(C)ccc1NC(=O)CNC(=O)OCc1ccccc1 (configuration not stated) the AC50 [12] was 36.1 µM (active), the AC50 [13] was 6.89 µM (active) and the IC50 [3] was 35.3 µM (not active). The AC50 [14] was 6.15 µM (active), the AC50 [15] was 3.28 µM (active) and the IC50 [4] was 20 µM (not active).
In the case of C[C@@H]1CN([C@@H](C)CO)C(=O)c2cc(NC(=O)Nc3ccccc3)ccc2O[C@@H](C)CCCCO[C@H]1CN(C)C(=O)Nc1ccc(C(F)(F)F)cc1, the IC50 [16] is reported as > 100 µM (active) and the CC50 [17] is reported as 36.3 µM (active).
For O=C(NC1=C(N2CCSCC2)C(=O)c2ccccc2C1=O)c1ccc(Br)cc1, the AC50 [18] was 49.9 µM (active) and the AC50 [19] was > 70 µM (inactive).
With O=C1C(NS(=O)(=O)c2ccc(Br)cc2)=C(c2ccccc2)C(=O)c2ccccc21 the AC50 [18] was > 70 µM (inactive) and the AC50 [19] was > 70 µM (inactive).
In the case of C=CCNC1=C(Nc2ccccc2)C(=O)c2ccccc2C1=O, the AC50 [18] is reported as > 70 µM (inactive) and the AC50 [19] is reported as > 70 µM (inactive).
With Sc1nnc(-c2cccs2)n1/N=C/c1cn(-c2ccccc2)nc1-c1ccc(Cl)cc1 the IC50 [20] was 34.5 µM (active), the CC50 [21] was > 25 µM (active) and the IC50 [22] was 5.24 µM (active).
For Cc1cccc(N/N=C(\C#N)S(=O)(=O)C(C)(C)C)c1, the IC50 [11] was 19 µM (active).
For C[C@@H]1CN([C@@H](C)CO)C(=O)c2c(c3ccccc3n2C)-c2ccccc2CO[C@@H]1CN(C)Cc1ccccc1C(F)(F)F, the AC50 [23] was 1.47 µM (active) and the AC50 [24] was 8.34 µM (active).
With N#C[C@@H]1[C@H](c2ccccc2C2=CCCCC2)[C@@H](CO)N1C(=O)c1cccc(F)c1 the AC50 [25] was 7.9 µM (active), the AC50 [23] was 2.74 µM (active) and the AC50 [26] was 1.93 µM (active). For the same molecule, the AC50 [27] was 2.12 µM (active).
In the case of C/C=C/c1ccc([C@H]2[C@@H](CO)N(CC3CCCCC3)[C@H]2CNC(C)C)cc1, the AC50 [28] is reported as 5.66 µM (active).
With COc1ccc(S(=O)(=O)Nc2ccc3c(c2)C(=O)N([C@H](C)CO)C[C@@H](C)[C@@H](CN(C)S(=O)(=O)c2ccc(Cl)cc2)OCCCC[C@@H](C)O3)cc1 the AC50 [28] was 0.742 µM (active).

From ChEMBL document CHEMBL1201862, “PubChem BioAssay data set” (2004)
